According to patent US20260265832A1, “ADAR1 INHIBITORS FOR TREATING CANCER” (INSTITUE OF CANCER RESEARCH ROYAL CANCER HOSPITAL, priority 2023, published 2026):

Assays:
[1] = tested on: BRCA2-knockout DLD1 cells; experiment: Clonogenic survival and dose-response survival with 8-azaadenosine; format: cell-based; conditions: DLD1 BRCA2-KO vs BRCA2-wildtype; 8 days clonogenic, 7 days dose-response
Excerpt: (§1) FIG. 7. A. Clonogenic survival of Brca1-wildtype and Brca1-mutant (Δ11) MEFs exposed to 8-azaadenosine for 8 days. B. Dose-response survival curves of Brca1-wildtype and Brca1-mutant (Δ11) MEFs exposed to increasing concentrations of 8-azaadenosine for 7 days. C. Clonogenic survival of BRCA2-wildtype and BRCA2-knockout DLD1 cells exposed to 8-azaadenosine for 8 days. D. Dose-response survival curves of BRCA2-wildtype and BRCA2-knockout DLD1 cells exposed to increasing concentrations of 8-azaadenosine for 7 days. All graphs show median. Error bars represent Standard Deviation (SD).

[2] = tested on: Brca1-mutant (Δ11) MEFs; experiment: as above; format: cell-based, mouse; conditions: MEF Brca1-Δ11 vs Brca1-wildtype; 8 days clonogenic, 7 days dose-response
Excerpt: as §1

Nc1ncnc2c1nnn2[C@@H]1O[C@H](CO)[C@@H](O)[C@H]1O [8-azaadenosine, 3-(β-D-Ribofuranosyl)-3H-[1,2,3]triazolo[4,5-d]pyrimidin-7-amine]
BRCA2 synthetic lethality (clonogenic survival, dose-response survival) [1]: BRCA2 synthetic lethality | BRCA1 synthetic lethality (clonogenic survival, dose-response survival) [2]: elicited BRCA1 synthetic lethality
